Test results as given in patent US7553849B2, “Compounds” (Active Biotech AB, priority 2004, dated 2009).

Test system: acute experimental autoimmune encephalomyelitis (aEAE)
Assay: Acute experimental autoimmune encephalomyelitis (aEAE) inhibition in mice
Format: in vivo
Conditions: for activity in the aEAE model (in words): mice, no dose stated; for aEAE inhibition (%): percent inhibition of clinical scores vs saline controls
[1] = SJL/N female mice, dose 0.2 mg/kg po daily at days 3 to 7 and 10 to 12
[2] = SJL/N female mice, dose 1.0 mg/kg po daily at days 3 to 7 and 10 to 12
[3] = SJL/N female mice, dose 5.0 mg/kg po daily at days 3 to 7 and 10 to 12

How did the “activity in the aEAE model (in words)” value turn out when `O=C(Nc1cccnc1)c1c(O)c2ccsc2[nH]c1=O` [6,7-dihydro-4-hydroxy-N-(3-pyridyl)-6-oxo-thieno[2,3-b]pyridine-5-carboxamide, reference compound] was run?
Its value is “inactive”.

Which results are given for `Cc1csc2c1c(O)c(C(=O)N(C)c1ccccc1)c(=O)n2C` [Compound #1, 6,7-dihydro-4-hydroxy-N-phenyl-N,3,7-trimethyl-6-oxo-thieno[2,3-b]pyridine-5-carboxamide]?
aEAE inhibition (%) [1]: 85%; aEAE inhibition (%) [2]: 99%

What does the source list for `CCN(C(=O)c1c(O)c2c(C)csc2n(C)c1=O)c1ccccc1` [compound 2, 6,7-dihydro-3,7-dimethyl-N-ethyl-4-hydroxy-N-phenyl-6-oxo-thieno[2,3-b]pyridine-5-carboxamide]?
aEAE inhibition (%) [1]: 66%; aEAE inhibition (%) [2]: 84%

How did the “aEAE inhibition (%)” value [1] turn out when `CCc1csc2c1c(O)c(C(=O)N(C)c1ccccc1)c(=O)n2C` [compound 3, 6,7-dihydro-N,7-dimethyl-3-ethyl-4-hydroxy-N-phenyl-6-oxo-thieno[2,3-b]pyridine-5-carboxamide] was run?
The value was 84%.

And the “aEAE inhibition (%)” value [2]?
Its value is 100%.

With `COc1ccc(N(C)C(=O)c2c(O)c3c(C)csc3n(C)c2=O)cc1` [compound 6, 6,7-dihydro-4-hydroxy-N-(4-methoxyphenyl)-N,3,7-trimethyl-6-oxo-thieno[2,3-b]pyridine-5-carboxamide] as the compound, how does the “aEAE inhibition (%)” value [1] read?
The value was 92%.

Which results are given for `Cc1scc2c1c(O)c(C(=O)N(C)c1ccccc1)c(=O)n2C` [compound 10, 4,5-dihydro-7-hydroxy-N-phenyl-N,1,4-trimethyl-5-oxo-2-thia-4-aza-indene-6-carboxamide]?
aEAE inhibition (%) [2]: 78%; aEAE inhibition (%) [3]: 95%

`CN(C(=O)c1c(O)c2ccsc2n(C)c1=O)c1ccccc1` [compound 11, 6,7-dihydro-N,7-dimethyl-4-hydroxy-N-phenyl-6-oxo-thieno[2,3-b]pyridine-5-carboxamide] was tested. Which “aEAE inhibition (%)” value [2] did it give?
The value was 53%.

With `CN(C(=O)c1c(O)c2sccc2n(C)c1=O)c1ccccc1` [compound 12, 4,5-dihydro-N,4-dimethyl-7-hydroxy-N-phenyl-5-oxo-thieno[3,2-b]pyridine-6-carboxamide, reference compound] as the compound, how does the “aEAE inhibition (%), result in words” value (SJL/N female mice, dose 5.0 mg/kg po, class word defined in footnote) read?
Its value is “inactive*”.

What about the “activity in the aEAE model (in words)” value of the same compound?
Its value is “inactive”.

`Cc1csc2c1c(O)c(C(=O)N(C)c1cccnc1)c(=O)n2C` [compound 13, 6,7-dihydro-4-hydroxy-N-(3-pyridyl)-N,3,7-trimethyl-6-oxo-thieno[2,3-b]pyridine-5-carboxamide, reference compound] was tested. Which “aEAE inhibition (%)” value [3] did it give?
The value was 46%.

And the “activity in the aEAE model (in words)” value?
The value was “poorly active”.
